In this test the target is T1, GlpG (Escherichia coli, UniProt P09391).
T1 construct: Full-length GlpG with C-terminal His-tag was overexpressed from pET25b + in E. coli C43(DE3); His-tag (C); made in house; host or cells: E. coli C43(DE3)
Nature of the test: Inhibition assay of GlpG with fluorogenic substrate compound 1. Format: biochemical, E. coli. Conditions: detergent-solubilized GlpG 100 nM, substrate compound 1, 1 h preincubation at 37 °C, mean ± SEM of three measurements. The protocol: Activity and inhibition assays of GlpG shown in Figure 1B–D were carried out in 50 mM potassium phosphate pH 7.4, 150 mM NaCl, 20% (v/v) glycerol, 0.05% (w/v) PEG8000, 0.05% (w/v) DDM, and 5% (v/v) DMSO. […] All activity measurements were performed at 37 °C in 96-well black HTS plates (Greiner Bio-One) and fluorescence was monitored in a plate reader (Tecan Infinite M1000) with excitation and emission wavelengths set to 355 and 450 nm, respectively, for compound 1, and 335 and 493 nm, respectively, for the transmembrane substrate KSp96. Data were evaluated using Excel (Microsoft) and GraphPad Prism 9 (GraphPad Software, Inc.).

Drawing on PMC9841525, “Chemical Blockage of the Mitochondrial Rhomboid Protease PARL by Novel Ketoamide Inhibitors Reveals Its Role in PINK1/Parkin-Dependent Mitophagy” (Journal of Medicinal Chemistry, 2022), this text covers IC50 for one molecule.

As a reminder, the IC50 is the midpoint of a concentration-inhibition curve. Low values mean greater potency, high ones weaker potency.

T1 sequence (P09391 whole entry): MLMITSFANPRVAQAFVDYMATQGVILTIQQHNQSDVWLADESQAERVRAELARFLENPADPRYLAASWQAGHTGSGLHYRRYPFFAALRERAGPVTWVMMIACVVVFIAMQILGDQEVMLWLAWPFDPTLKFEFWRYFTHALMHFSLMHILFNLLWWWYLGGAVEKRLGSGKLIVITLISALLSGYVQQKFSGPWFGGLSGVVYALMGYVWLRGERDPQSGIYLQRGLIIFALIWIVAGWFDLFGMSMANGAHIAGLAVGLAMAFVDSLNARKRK

`CC(=O)N[C@H](C(=O)N[C@@H](CCCNC(=N)N)C(=O)N[C@@H](Cc1c[nH]cn1)C(=O)N[C@@H](C)C(=O)C(=O)NCCCCc1ccccc1)C(C)C` [compound 2]: the concentration for half-maximal inhibition (IC50) amounted to 132 ± 23 nM.
